Entries after “also recorded” stand apart in the source; their conditions may differ.
How the values were obtained:
[1] = system: P. falciparum asexual blood stages; assay: Asexual parasite growth inhibition, [3H]-hypoxanthine incorporation; type: cell-based, Plasmodium falciparum; settings: unpublished data
Procedure: Asexual parasite growth assays were carried out to obtain the IC50 of test compounds using inhibition of incorporation of [^3H]-hypoxanthine, and to compare growth rates between transfected clones. Briefly, in 96-well plates, each test well was dosed at early trophozoite stage with 10 μl of [^3H]-hypoxanthine (GE Healthcare) to a final concentration of 0.2 μCi. The radioactivity of the [^3H]-hypoxanthine incorporated into parasite nucleic acid over 24 h was determined relative to the WT controls using a Wallac 1450 Microbeta scintillation β-counter (Perkin-Elmer). This assay was done in triplicate and repeated at least three times.

PfPKGT618Q = biological target: T1, PfPKGT618Q (Plasmodium falciparum, UniProt Q8I719, T618Q); assay: Recombinant PKG activity assay, T618Q mutant; type: biochemical
T1 construct: The gene encoding full-length PfPKG was cloned into the pTrcHis expression plasmid (Invitrogen); His tag (from pTrcHis vector); made in house; host or cells: Escherichia coli
T1 sequence (Q8I719 whole entry T618Q): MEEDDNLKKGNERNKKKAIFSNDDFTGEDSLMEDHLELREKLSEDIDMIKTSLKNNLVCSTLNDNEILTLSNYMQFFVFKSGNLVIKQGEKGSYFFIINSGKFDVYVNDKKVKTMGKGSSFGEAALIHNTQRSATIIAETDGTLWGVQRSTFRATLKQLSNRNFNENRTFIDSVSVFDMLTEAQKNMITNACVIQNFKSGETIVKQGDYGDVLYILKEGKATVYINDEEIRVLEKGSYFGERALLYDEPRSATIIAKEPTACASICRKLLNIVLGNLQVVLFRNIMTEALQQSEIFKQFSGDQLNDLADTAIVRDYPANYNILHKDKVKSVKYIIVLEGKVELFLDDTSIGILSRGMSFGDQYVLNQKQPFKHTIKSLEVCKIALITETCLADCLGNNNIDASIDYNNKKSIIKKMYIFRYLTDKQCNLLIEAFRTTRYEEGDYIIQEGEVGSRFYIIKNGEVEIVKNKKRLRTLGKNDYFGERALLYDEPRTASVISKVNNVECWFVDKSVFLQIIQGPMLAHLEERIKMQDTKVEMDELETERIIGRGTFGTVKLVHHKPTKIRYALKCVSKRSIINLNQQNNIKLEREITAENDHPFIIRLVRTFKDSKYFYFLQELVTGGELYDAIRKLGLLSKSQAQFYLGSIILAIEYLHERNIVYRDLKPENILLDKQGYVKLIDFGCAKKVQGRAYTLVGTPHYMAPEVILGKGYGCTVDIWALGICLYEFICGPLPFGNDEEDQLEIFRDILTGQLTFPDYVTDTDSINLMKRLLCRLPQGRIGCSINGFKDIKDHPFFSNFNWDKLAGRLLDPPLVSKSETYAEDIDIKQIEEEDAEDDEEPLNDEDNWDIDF
Text: (§1) Figure 4 Substitution of a Key Active Site Threonine Residue Confers Compound 1 Insensitivity to Recombinant PfPKG (A) An alignment of regions of PfPKG in the ATP-binding pocket, thought to interact with compound 1, with those of other apicomplexans. Conserved active site residues highlighted in grey were predicted to approach compound 1 in a model of the Eimeria tenella PKG [29] (EtPKG). The threonine residue (T618), substituted in PfPKG in this study, is highlighted in grey and marked with an asterisk. Amino acid sequences are numbered to the right of the blocks of sequence. (B) Dose-response curves showing the effect of compound 1 on recombinant PKG enzyme activity assayed in the presence of 10 μM cGMP. Red diamonds indicate full-length WT PfPKG; black triangles, mutated PfPKG with T618 replaced by a glutamine residue; and blue squares, mutated PfPKG with T618 replaced by a methionine residue.
(§2) The activity of recombinant and native PKG was measured using a modification of standard procedures. The gene encoding full-length PfPKG was cloned into the pTrcHis expression plasmid (Invitrogen). Substitution of specific amino acids of PfPKG was carried out using a QuickChange Multi Site-Directed Mutagenesis kit (Stratagene) according to the manufacturer's instructions. Expression, affinity purification of E. coli–expressed recombinant proteins, and PKG activity assays were performed as previously described. All experiments were performed at least twice in triplicate. PKG measurements in native P. falciparum proteins were performed using an adaptation of a previously described assay. Briefly, ring stage parasites were exposed to 0.15% saponin solution in PBS to free the parasites from their host cells. […] Radiolabelled peptide was detected on 96-well multiscreen phosphocellulose plates (MAPH-NOB; Millipore) by scintillation counting on a Wallac 1450 Microbeta scintillation β-counter (Perkin-Elmer). […]

PfPKGT618M = biological target: T2, PfPKGT618M (Plasmodium falciparum, UniProt Q8I719, T618M); assay: Recombinant PKG activity assay, T618M mutant; type: biochemical; settings: versus WT
T2 construct: The gene encoding full-length PfPKG was cloned into the pTrcHis expression plasmid (Invitrogen); His tag (from pTrcHis vector); made in house; host or cells: Escherichia coli
T2 sequence (Q8I719 whole entry T618M): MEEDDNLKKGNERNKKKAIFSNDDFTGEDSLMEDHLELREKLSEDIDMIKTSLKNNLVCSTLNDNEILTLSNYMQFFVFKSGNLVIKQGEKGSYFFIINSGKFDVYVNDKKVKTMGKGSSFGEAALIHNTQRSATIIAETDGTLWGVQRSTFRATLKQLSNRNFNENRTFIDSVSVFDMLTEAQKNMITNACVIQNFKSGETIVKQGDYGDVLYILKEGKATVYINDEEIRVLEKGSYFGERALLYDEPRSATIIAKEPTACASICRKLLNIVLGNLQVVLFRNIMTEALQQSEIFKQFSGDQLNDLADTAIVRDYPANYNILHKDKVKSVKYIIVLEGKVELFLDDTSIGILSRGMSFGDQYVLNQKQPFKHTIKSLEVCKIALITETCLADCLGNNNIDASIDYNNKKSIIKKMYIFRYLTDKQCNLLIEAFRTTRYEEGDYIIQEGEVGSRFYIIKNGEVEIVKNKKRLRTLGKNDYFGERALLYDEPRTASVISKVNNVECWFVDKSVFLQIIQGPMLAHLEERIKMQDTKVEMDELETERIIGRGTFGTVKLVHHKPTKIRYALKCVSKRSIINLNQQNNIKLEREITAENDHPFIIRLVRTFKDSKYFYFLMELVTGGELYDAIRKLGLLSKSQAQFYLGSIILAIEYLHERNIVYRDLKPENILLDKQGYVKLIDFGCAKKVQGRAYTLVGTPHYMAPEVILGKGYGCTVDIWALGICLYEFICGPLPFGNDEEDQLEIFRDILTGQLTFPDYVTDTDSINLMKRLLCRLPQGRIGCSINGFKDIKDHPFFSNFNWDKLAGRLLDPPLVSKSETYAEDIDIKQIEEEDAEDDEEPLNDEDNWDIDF
Text: as §1
The activity of recombinant and native PKG was measured using a modification of standard procedures. The gene encoding full-length PfPKG was cloned into the pTrcHis expression plasmid (Invitrogen). […] Radiolabelled peptide was detected on 96-well multiscreen phosphocellulose plates (MAPH-NOB; Millipore) by scintillation counting on a Wallac 1450 Microbeta scintillation β-counter (Perkin-Elmer). […]

[2] = system: P. falciparum gametocytes (WT / Pfrh3- control); assay: Gametogenesis assay: rounding up, WT/control gametocytes; type: cell-based, Plasmodium falciparum
Procedure: (§3) P. falciparum gametocytes were produced from the 3D7 clone in human A+ erythrocytes with 10% human serum (National Blood Service), and enriched using Nycodenz (Nycoprep 1.077; Axis-Shield) centrifugation as previously described. For gametogenesis, cells were resuspended at 5 × 10^6 parasites per millilitre and induced with either 20 μM XA or 25–400 μM zaprinast in complete medium, and a reduction (of >5 °C) in temperature. For gametogenesis assays, 10 min post induction, cells were mounted on a wet smear. […] Test reagents including zaprinast, BAPTA-AM, compound 1, and compound 2 were resuspended in DMSO as stock solutions and diluted in complete medium for gametogenesis assays, with the XA stock resuspended in RPMI 1640. The maximum final DMSO concentration in the gametogenesis medium was 0.4%, which was used as a negative control. […] Compound 1 and compound 2 were added at the point of activation with either XA or zaprinast, whereas cells were preincubated with 100 μM BAPTA-AM as previously described. Statistical multivariate analysis was carried out using Poisson regression (Stata 9.2; StataCorp) to compare the effects of genetic background (mutant vs. WT) and experimental replicate (included as categorical data in the analysis) on the rates of rounding up at individual drug concentrations. For each drug concentration, the mutants were tested separately against the WT control, and the resultant output was anti-logged to give the relative risk (and 95% confidence interval) for rounding up with genetic background.

PfPKGT618Q gametocytes = assay: Gametogenesis assay: rounding up, PfPKGT618Q gametocytes; type: cell-based, Plasmodium falciparum; settings: for RR, relative risk of rounding up, T618Q vs WT: Poisson regression
Procedure: as §3
(§4) Supplementary file pbio.0060139.st002.doc: Table S2 Poisson Regression Analysis for Compound 1 Sensitivity of Rounding Up of Both Mutants Compared to WT Each rounding-up measurement was made by counting 200 cells and scoring for rounding up (or not rounding up). At each compound 1 concentration, rounding-up replicate counts for both clones were compared to WT values separately by Poisson regression analysis using the Stata 9.2 package (StataCorp). Where n < 2 (indicated by n.d.), data were excluded from the analysis. Compound 1 concentration (comp1) is shown in micromolar. The p-values from this analysis and the relative risk (RR) of rounding up with genetic background (and 95% confidence intervals [CI]) are shown. (38 KB DOC) Click here for additional data file.

PfPKGT618M gametocytes = assay: Gametogenesis assay: rounding up, PfPKGT618M gametocytes; type: cell-based, Plasmodium falciparum; settings: for RR, relative risk of rounding up, T618M vs WT: Poisson regression
Procedure: as §3, §4

[3] = system: P. falciparum gametocytes; assay: Gametogenesis assay: exflagellation; type: cell-based, Plasmodium falciparum
Procedure: as §3

[4] = system: cGMP-dependent kinase activity in P. falciparum lysates; assay: Native cGMP-dependent kinase activity in cell lysates; type: biochemical, Plasmodium falciparum; settings: control versus PfPKGT618Q lysates
Procedure: as §2, with “cells. Both gametocyte and ring stage parasite pellets were lysed in HBS buffer (50 mM Hepes [pH 7.4], 1 mM EDTA, 1% Nonidet P-40, 10 mM NaF, 0.1 mM sodium orthovanadate, 1 mM dithiotreitol) supplemented with a 1/100 dilution of Sigma-Aldrich Protease Inhibitor Cocktail. Parasite lysis was confirmed by microscopic examination of Giemsa-stained thin smears.” for “cells.”

Eimeria = settings: cited from earlier work
T. gondii = settings: cited from earlier work
P. berghei = settings: cited from earlier work
[5] = 1–5 μM compound, XA stimulation

CN1CCC(c2cc(-c3ccncc3)c(-c3ccc(F)cc3)[nH]2)CC1 [compound 1]
IC50 [1]: 2.7 ± 0.17 µM
IC50 (PfPKGT618Q; 10 μM cGMP, read-out: IC50, PfPKGT618Q recombinant enzyme): 17.8 ± 4.7 µM
less sensitive, PfPKGT618Q versus WT recombinant enzyme (PfPKGT618Q; ratio of IC50 values): over 3,000 times
decreased sensitivity conferred by T618Q in the recombinant protein (PfPKGT618Q; versus WT): > 3,000 fold
increase in sensitivity of T618M recombinant enzyme (PfPKGT618M): < 4 fold
gametocytes in which change of shape is prevented [2]: over 90%
rounding up of control gametocytes [2, 5]: reduced rounding up to background levels
inhibition of rounding up ([2]; control gametocytes stimulated with XA (or zaprinast)): inhibited by compound 1 in a dose-dependent manner
inhibitory effects on rounding up of PfPKGT618Q gametocytes (PfPKGT618Q gametocytes; 2 μM, stimulation with zaprinast or XA): absence of inhibitory effects
rounding up of PfPKGT618Q gametocytes (PfPKGT618Q gametocytes; [5]): rounded up to almost normal levels
RR, relative risk of rounding up, T618Q vs WT (PfPKGT618Q gametocytes; compound 1 0.1 μM): 1.031
RR, relative risk of rounding up, T618Q vs WT (PfPKGT618Q gametocytes; compound 1 2 μM): 1.827
RR, relative risk of rounding up, T618Q vs WT (PfPKGT618Q gametocytes; compound 1 5 μM): 2.248
RR, relative risk of rounding up, T618Q vs WT (PfPKGT618Q gametocytes; compound 1 6 μM): 1.974
RR, relative risk of rounding up, T618Q vs WT (PfPKGT618Q gametocytes; compound 1 8 μM): 1.910
RR, relative risk of rounding up, T618Q vs WT (PfPKGT618Q gametocytes; compound 1 10 μM): 1.649
RR, relative risk of rounding up, T618Q vs WT (PfPKGT618Q gametocytes; compound 1 20 μM): 1.283
lower sensitivity of PfPKGT618Q gametocytes than control cells (rounding up) (PfPKGT618Q gametocytes; range of inhibitor concentrations, approximately): 10–20 fold
RR, relative risk of rounding up, T618M vs WT (PfPKGT618M gametocytes; compound 1 0.1 μM): 1.014
RR, relative risk of rounding up, T618M vs WT (PfPKGT618M gametocytes; compound 1 2 μM): 1.020
RR, relative risk of rounding up, T618M vs WT (PfPKGT618M gametocytes; compound 1 4 μM): 0.946
RR, relative risk of rounding up, T618M vs WT (PfPKGT618M gametocytes; compound 1 5 μM): 1.010
RR, relative risk of rounding up, T618M vs WT (PfPKGT618M gametocytes; compound 1 6 μM): 1.002
RR, relative risk of rounding up, T618M vs WT (PfPKGT618M gametocytes; compound 1 20 μM): 0.861
difference in sensitivity of PfPKGT618M line compared to control cells (PfPKGT618M gametocytes; rounding up and exflagellation): no significant difference in sensitivity
inhibition of exflagellation ([3]; gametocytes stimulated with XA or zaprinast): inhibited by compound 1 in a dose-dependent manner; also recorded: inhibited exflagellation in a dose-dependent manner
difference in sensitivity of exflagellation between control and PfPKGT618Q cell lines ([3]; unpublished data): no significant difference in sensitivity
sensitivity of cGMP-dependent kinase activity in control and mutant lysates [4]: equivalent levels of sensitivity
effect on Eimeria infection in chickens (Eimeria): cure
effect on infection by T. gondii in mice (T. gondii): cure
effect on P. berghei infections in mice (P. berghei): delays the onset

Reference: PMC2408617, “Gametogenesis in Malaria Parasites Is Mediated by the cGMP-Dependent Protein Kinase” (PLoS Biology, 2008)
